Source: ChEMBL document CHEMBL1137016, “1-alkyl-8-(piperazine-1-sulfonyl)phenylxanthines: development and characterization of adenosine A2B receptor antagonists and a new radioligand with subnanomolar affinity and subtype specificity” (J Med Chem, 2009)

Legend:
Adenosine receptor A3 = target: T1, Adenosine receptor A3 (Homo sapiens, UniProt P0DMS8); assay: Displacement of [3H]PSB-11 from human recombinant adenosine A3 receptor expressed in CHO cells; format: cell-based
T1 sequence (P0DMS8 whole entry): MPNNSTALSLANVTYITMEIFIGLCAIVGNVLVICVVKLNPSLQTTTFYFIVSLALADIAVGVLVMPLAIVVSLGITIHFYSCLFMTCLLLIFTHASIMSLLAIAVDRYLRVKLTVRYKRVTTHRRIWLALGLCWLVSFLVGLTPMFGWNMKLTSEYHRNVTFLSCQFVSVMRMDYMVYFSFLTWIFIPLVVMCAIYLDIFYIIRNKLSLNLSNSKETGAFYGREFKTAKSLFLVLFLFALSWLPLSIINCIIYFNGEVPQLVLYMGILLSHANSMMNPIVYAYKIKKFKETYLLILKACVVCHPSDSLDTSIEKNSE

Adenosine receptor A2b [1] = target: T2, Adenosine receptor A2b (Homo sapiens, UniProt P29275); assay: Displacement of [3H]PSB-603 from human recombinant adenosine A2B receptor expressed in CHO cells; format: cell-based
T2 sequence (P29275 whole entry): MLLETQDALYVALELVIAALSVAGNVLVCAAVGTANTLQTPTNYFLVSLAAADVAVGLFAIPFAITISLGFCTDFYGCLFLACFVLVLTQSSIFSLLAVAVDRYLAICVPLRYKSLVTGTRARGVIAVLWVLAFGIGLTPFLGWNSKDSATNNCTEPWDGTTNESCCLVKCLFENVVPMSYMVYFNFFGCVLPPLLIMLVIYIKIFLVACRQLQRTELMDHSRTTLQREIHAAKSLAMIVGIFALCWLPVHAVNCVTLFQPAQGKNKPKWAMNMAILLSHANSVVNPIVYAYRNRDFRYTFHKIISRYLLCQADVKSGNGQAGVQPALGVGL

Adenosine receptor A2a [2] = target: Adenosine receptor A2a (Rattus norvegicus, UniProt P30543); assay: Displacement of [3H]MSX-2 from rat brain striatum adenosine A2A receptor
Adenosine receptor A1 [3] = target: T3, Adenosine receptor A1 (Rattus norvegicus, UniProt P25099); assay: Displacement of [3H]CCPA from rat brain cortex adenosine A1 receptor
T3 sequence (P25099 whole entry): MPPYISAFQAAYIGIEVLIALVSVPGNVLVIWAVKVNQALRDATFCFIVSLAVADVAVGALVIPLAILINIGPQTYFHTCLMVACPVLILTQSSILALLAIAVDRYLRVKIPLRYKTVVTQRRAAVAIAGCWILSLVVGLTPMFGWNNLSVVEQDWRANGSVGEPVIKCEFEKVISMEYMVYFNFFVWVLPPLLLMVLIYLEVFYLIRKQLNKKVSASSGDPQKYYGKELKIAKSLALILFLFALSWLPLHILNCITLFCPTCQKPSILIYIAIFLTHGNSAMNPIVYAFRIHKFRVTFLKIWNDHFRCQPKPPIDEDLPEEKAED

Adenosine receptor A1 [4] = target: T4, Adenosine receptor A1 (Homo sapiens, UniProt P30542); assay: Displacement of [3H]CCPA from human adenosine A1 receptor expressed in CHO cells; format: cell-based
T4 sequence (P30542 whole entry): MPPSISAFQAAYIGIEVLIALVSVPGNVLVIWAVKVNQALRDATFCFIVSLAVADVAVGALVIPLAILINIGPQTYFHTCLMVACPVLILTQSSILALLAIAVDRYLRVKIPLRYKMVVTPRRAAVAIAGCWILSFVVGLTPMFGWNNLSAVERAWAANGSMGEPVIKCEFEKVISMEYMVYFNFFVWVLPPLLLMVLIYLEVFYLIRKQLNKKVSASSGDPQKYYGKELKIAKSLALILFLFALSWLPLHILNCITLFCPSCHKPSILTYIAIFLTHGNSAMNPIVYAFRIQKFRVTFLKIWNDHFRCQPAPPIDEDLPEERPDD

Adenosine receptor A2a [5] = target: Adenosine receptor A2a (Homo sapiens, UniProt P29274); assay: Displacement of [3H]MSX-2 from human recombinant adenosine A2A receptor expressed in CHO cells; format: cell-based
[6] = target: T5, Adenosine receptor A3 (Homo sapiens) (UniProt P0DMS8); assay: Displacement of [3H]PSB-11 from human recombinant adenosine A3 receptor expressed in CHO cells at 1 uM; format: cell-based
T5 sequence (whole entry): T1 sequence (P0DMS8 whole entry)

Adenosine receptor A2b [7] = target: T2, Adenosine receptor A2b; assay: Antagonist activity at adenosine A2B receptor in human Jurkat T cells assessed as inhibition of NECA-induced increase in intracellular calcium concentration by fluorimetric measurement in presence of MSX-2; format: functional, cell-based
[8] = target: T5, Adenosine receptor A3 (Homo sapiens); assay: Displacement of [3H]PSB-11 from human recombinant adenosine A3 receptor expressed in CHO cells at 10 uM; format: cell-based

Adenosine receptor A2a (Homo sapiens, UniProt P29274), sequence (P29274 whole entry): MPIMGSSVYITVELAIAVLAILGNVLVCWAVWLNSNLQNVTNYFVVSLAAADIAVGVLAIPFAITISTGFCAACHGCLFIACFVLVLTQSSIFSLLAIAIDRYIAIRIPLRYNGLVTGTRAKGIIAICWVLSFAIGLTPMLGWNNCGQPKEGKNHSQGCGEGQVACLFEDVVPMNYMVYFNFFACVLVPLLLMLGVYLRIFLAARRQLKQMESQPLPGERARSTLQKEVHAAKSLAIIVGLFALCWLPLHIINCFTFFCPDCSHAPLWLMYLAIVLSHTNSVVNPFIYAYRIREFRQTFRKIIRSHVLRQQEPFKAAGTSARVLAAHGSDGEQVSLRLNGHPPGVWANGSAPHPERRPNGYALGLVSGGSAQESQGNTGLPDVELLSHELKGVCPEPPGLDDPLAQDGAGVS
Adenosine receptor A2a (Rattus norvegicus, UniProt P30543), sequence (P30543 whole entry): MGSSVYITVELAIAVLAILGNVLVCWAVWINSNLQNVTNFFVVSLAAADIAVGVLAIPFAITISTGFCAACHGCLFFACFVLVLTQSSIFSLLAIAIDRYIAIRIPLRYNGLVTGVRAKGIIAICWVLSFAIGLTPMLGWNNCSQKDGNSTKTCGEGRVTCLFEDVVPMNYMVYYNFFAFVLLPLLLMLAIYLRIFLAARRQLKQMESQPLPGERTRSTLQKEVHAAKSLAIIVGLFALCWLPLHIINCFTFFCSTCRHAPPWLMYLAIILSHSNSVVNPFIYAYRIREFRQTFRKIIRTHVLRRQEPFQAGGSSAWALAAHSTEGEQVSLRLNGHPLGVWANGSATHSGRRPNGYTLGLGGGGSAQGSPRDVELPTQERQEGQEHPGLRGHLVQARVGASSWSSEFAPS

Row | Structure (SMILES) | Ki (Adenosine receptor A3) | Ki (Adenosine receptor A2b [1]) | Ki (Adenosine receptor A2a [2]) | Ki (Adenosine receptor A1 [3]) | Ki (Adenosine receptor A1 [4]) | Ki (Adenosine receptor A2a [5]) | inhibition [6] | IC50 (Adenosine receptor A2b [7]) | inhibition [8]
1 | CCCn1c(=O)[nH]c2nc(-c3ccc(S(=O)(=O)NC4CCN(Cc5ccccc5)CC4)cc3)[nH]c2c1=O | 2080 nM | 3.03 nM | 136 nM | 38.5 nM | 1170 nM | 94.5 nM | – | – | –
2 | CCCn1c(=O)[nH]c2nc(-c3ccc(S(=O)(=O)N4CCN(Cc5ccc6c(c5)OCO6)CC4)cc3)[nH]c2c1=O | 17600 nM | 1.06 nM | – | – | 443 nM | 112 nM | – | 23.4 nM | –
3 | CCCn1c(=O)[nH]c2nc(-c3ccc(S(=O)(=O)N4CCCCC4)cc3)[nH]c2c1=O | 140 nM | 19.7 nM | 714 nM | 91.1 nM | – | – | – | – | –
4 | CCn1c(=O)[nH]c2nc(-c3ccc(S(=O)(=O)N4CCN(Cc5ccc(OC)cc5)CC4)cc3)[nH]c2c1=O | > 1000 nM | 1.19 nM | 914 nM | 354 nM | 3800 nM | 236 nM | 29% | 5.26 nM | –
5 | CCn1c(=O)[nH]c2nc(-c3ccc(S(=O)(=O)N4CCCCC4)cc3)[nH]c2c1=O | 209 nM | 5.43 nM | 251 nM | 77.1 nM | – | – | – | – | –
6 | CCCn1c(=O)[nH]c2nc(-c3ccc(S(=O)(=O)N4CCN(Cc5ccc(C)cc5)CC4)cc3)[nH]c2c1=O | 156 nM | 0.858 nM | 1750 nM | 46.7 nM | – | – | – | – | –
7 | CCCn1c(=O)[nH]c2nc(-c3ccc(S(=O)(=O)N4CCN(Cc5ccccc5)CC4)cc3)[nH]c2c1=O | – | 1.33 nM | – | – | – | – | – | – | –
8 | CCn1c(=O)[nH]c2nc(-c3ccc(S(=O)(=O)N4CCN(Cc5ccc(C)cc5)CC4)cc3)[nH]c2c1=O | > 1000 nM | 1.58 nM | 341 nM | 39 nM | – | – | 22% | – | –
9 | CCn1c(=O)[nH]c2nc(-c3ccc(S(=O)(=O)N4CCN(Cc5ccc(F)cc5)CC4)cc3)[nH]c2c1=O | > 1000 nM | 1.27 nM | 40.2 nM | 296 nM | 1820 nM | 92 nM | 21% | – | –

Now those with a lower Ki (Adenosine receptor A2b [1]), led by results:

Row | Ki (Adenosine receptor A3) | Ki (Adenosine receptor A2b [1]) | Ki (Adenosine receptor A2a [2]) | Ki (Adenosine receptor A1 [3]) | Ki (Adenosine receptor A1 [4]) | Ki (Adenosine receptor A2a [5]) | inhibition [6] | IC50 (Adenosine receptor A2b [7]) | inhibition [8] | Structure (SMILES)
10 | 24200 nM | 0.782 nM | – | – | 1090 nM | 161 nM | – | 1.91 nM | – | CCCn1c(=O)[nH]c2nc(-c3ccc(S(=O)(=O)N4CCN(Cc5cccc(Cl)c5)CC4)cc3)[nH]c2c1=O
11 | 30000 nM | 0.775 nM | – | – | 2610 nM | 306 nM | – | 3.56 nM | – | CCCn1c(=O)[nH]c2nc(-c3ccc(S(=O)(=O)N4CCN(Cc5cccc(C(F)(F)F)c5)CC4)cc3)[nH]c2c1=O
12 | 5780 nM | 0.695 nM | 388 nM | 359 nM | 2070 nM | 144 nM | – | – | – | CCn1c(=O)[nH]c2nc(-c3ccc(S(=O)(=O)N4CCN(Cc5cccc(F)c5)CC4)cc3)[nH]c2c1=O
13 | 557 nM | 0.61 nM | 263 nM | 96.7 nM | – | – | – | – | – | CCn1c(=O)[nH]c2nc(-c3ccc(S(=O)(=O)N4CCN(Cc5cccc(Cl)c5)CC4)cc3)[nH]c2c1=O
14 | 758 nM | 0.595 nM | 194 nM | 33.8 nM | – | – | – | – | – | CCCn1c(=O)[nH]c2nc(-c3ccc(S(=O)(=O)N4CCN(Cc5ccc(F)cc5)CC4)cc3)[nH]c2c1=O
15 | > 1000 nM | 0.473 nM | 198 nM | 1440 nM | – | – | 35% | – | – | C#CCn1c(=O)[nH]c2nc(-c3ccc(S(=O)(=O)N4CCN(c5ccc(Cl)cc5)CC4)cc3)[nH]c2c1=O
16 | > 1000 nM | 0.446 nM | – | – | 2300 nM | 278 nM | 32% | 3.23 nM | – | CCCn1c(=O)[nH]c2nc(-c3ccc(S(=O)(=O)N4CCN(Cc5cccc(F)c5)CC4)cc3)[nH]c2c1=O
17 | > 10000 nM | 0.303 nM | – | – | 5630 nM | 145 nM | – | 1.62 nM | 44% | CCCn1c(=O)[nH]c2nc(-c3ccc(S(=O)(=O)N4CCN(Cc5ccc(C(F)(F)F)cc5)CC4)cc3)[nH]c2c1=O
